Each structure is given as a SMILES string.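 Step 1: Grow cells in 96-well plates. Step 2: Expose to compound for 48 hours at 5 concentrations. Step 3: Interpolate endpoints linearly; if unreached, use highest concentration. Abbreviation: GI50, concentration required for 50% inhibition of growth.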 The source made the active and inactive calls. Cut-off read from the data, not from the text of the source: active = GI50 up to about 1.1 µM and inactive = higher.

Holding throughout (assay): NCI-60 cell line screen, 48 h
In assay [1] the test system is HOP-92.
Assay [2] deals with HL-60.
Assay [3] deals with 786-0.
For assay [4], the system named is SNB-75.
Assay [5] relates to SR.
Assay [6] concerns SF-295.
Assay [7] relates to MCF7.
In assay [8] the test system is LOX IMVI.
Assay [9] concerns OVCAR-4.
For assay [10], the system named is NCI/ADR-RES.
For assay [11], the system named is CAKI-1.
For assay [12], the system named is SF-539.
The test system of assay [13] is SN12C.
Assay [14] deals with SW-620.
Assay [15] concerns UO-31.
The subject of assay [16] is MDA-MB-231.
The subject of assay [17] is DU-145.
Assay [18] deals with M14.
The subject of assay [19] is ACHN.
Assay [20] relates to KM12.

For the molecule `ClCC[N+]12CC[N+](CCCl)(CC1)C2`, the GI50 in [1] was > 100 µM (inactive); in assay [2], > 100 µM (inactive); in assay [3], > 100 µM (inactive); in [4], > 100 µM (inactive); in assay [5], 55 µM (inactive); in assay [6], > 100 µM (inactive). Further, the GI50 in assay [7] is > 100 µM (inactive); in [8] it was > 100 µM (inactive); in assay [9], > 100 µM (inactive); in assay [10], > 100 µM (inactive); in assay [11], > 75.5 µM (inactive); in assay [12] it was > 100 µM (inactive). For the same molecule, the GI50 in assay [13], in assay [14], in [15], in assay [16], in assay [17] and in assay [18] was > 100 µM (inactive) throughout. For the same molecule, the GI50 in assay [19] and in assay [20] was > 100 µM (inactive) each time.
As to `Cc1ccc(NC(=O)CC(=O)n2nc(C)c(/N=N/c3cccc(C)c3)c2C)cc1`, the GI50 is 14 µM (inactive) in [1]; 38 µM (inactive) in [2]; > 100 µM (inactive) in assay [3]; 18.1 µM (inactive) in assay [4]; 61.7 µM (inactive) in assay [5]; > 100 µM (inactive) in assay [6]. Moreover, the GI50 in assay [7], in assay [8], in assay [9], in assay [10], in [11] and in [12] was > 100 µM (inactive) each time. In addition, the GI50 in assay [13], in assay [14], in assay [15], in [16], in [17] and in assay [18] was > 100 µM (inactive) each time. Also, the GI50 in assay [19] and in [20] was > 100 µM (inactive) each time.
Consider `CSc1ccc(-c2cc(-c3nc4ccccc4[nH]3)no2)cc1`, for which the GI50 in assay [1] was 50.6 µM (inactive); in assay [2], 21.6 µM (inactive); in [3], 55.1 µM (inactive); in assay [4], 37.6 µM (inactive); in assay [5], 23.6 µM (inactive); in [6], 28.7 µM (inactive). Moreover, the GI50 is 9.02 µM (inactive) in assay [7]; 24.3 µM (inactive) in assay [8]; 0.0562 µM (active) in assay [9]; 23.2 µM (inactive) in [10]; 23.6 µM (inactive) in assay [11]; 24.7 µM (inactive) in assay [12]. Further, the GI50 was 50.2 µM (inactive) in assay [13]; 37 µM (inactive) in assay [14]; 13.1 µM (inactive) in assay [15]; 40.6 µM (inactive) in assay [16]; 13.6 µM (inactive) in assay [17]; 20.4 µM (inactive) in assay [18]. In addition, the results for the GI50 in [19] and in [20] were 25.2 µM (inactive) and 9.91 µM (inactive), respectively.
With `CC1(c2nc3cc(Cl)c(Cl)cc3[nH]2)CCC(CO)C(C)(C)O1` (stereo not given), the GI50 in assay [1] is 44 µM (inactive); in assay [2], 15 µM (inactive); in assay [3], 42 µM (inactive); in assay [4], 14.8 µM (inactive); in [5], 19.9 µM (inactive); in assay [6] it was 31 µM (inactive). Besides, the GI50 in assay [7] was 35.9 µM (inactive); in [8], 27.7 µM (inactive); in assay [9] it was 25.1 µM (inactive); in assay [10] it was 17.7 µM (inactive); in [11], 29.3 µM (inactive); in [12], 25.4 µM (inactive). In addition, the GI50 is 32 µM (inactive) in assay [13]; 30.9 µM (inactive) in assay [14]; 15.1 µM (inactive) in assay [15]; 22.8 µM (inactive) in [16]; 38 µM (inactive) in assay [17]; 26.2 µM (inactive) in assay [18]. Also, the GI50 is 30.3 µM (inactive) in assay [19] and 15.1 µM (inactive) in assay [20].
Turning to `COC(=O)C1=NN2c3ccccc3CN([C@@H](C)c3ccccc3)C(=O)[C@H]2[C@@H]1C`, the GI50 in assay [1] is 44.7 µM (inactive); in assay [2] it was 0.769 µM (active); in assay [3], 57.7 µM (inactive); in assay [4], 27.2 µM (inactive); in [5], 25.5 µM (inactive); in assay [6], 35 µM (inactive). In addition, the GI50 is 36.3 µM (inactive) in [7]; 35.2 µM (inactive) in assay [8]; 28.9 µM (inactive) in assay [9]; 26.1 µM (inactive) in assay [10]; 33.7 µM (inactive) in [11]; 40.5 µM (inactive) in assay [12]. Moreover, the GI50 was 70.6 µM (inactive) in assay [13]; 43.1 µM (inactive) in [14]; 56 µM (inactive) in assay [15]; 83 µM (inactive) in [16]; 47.5 µM (inactive) in assay [17]; 35.2 µM (inactive) in [18]. In addition, the figures for the GI50 in [19] and in [20] were 39 µM (inactive) and 31 µM (inactive), respectively.
Consider `CCOC(=O)/C=C(\C)Sc1cc(O)c2ccccc2c1O`, for which the GI50 in assay [1] was 21.2 µM (inactive); in assay [2], 3.77 µM (inactive); in assay [3], 19.8 µM (inactive); in [4], 10.1 µM (inactive); in assay [5] it was 7.62 µM (inactive); in assay [6] it was 24.6 µM (inactive). For the same molecule, the GI50 in [7] was 13.9 µM (inactive); in assay [8] it was 5.37 µM (inactive); in assay [9] it was 16.1 µM (inactive); in [10], 25.3 µM (inactive); in assay [11] it was 23.5 µM (inactive); in assay [12] it was 21.5 µM (inactive). The GI50 was 29.2 µM (inactive) in [13]; 5.08 µM (inactive) in [14]; 4.51 µM (inactive) in [15]; 16.4 µM (inactive) in assay [16]; 9.02 µM (inactive) in [17]; 10.8 µM (inactive) in [18]. The results for the GI50 in [19] and in assay [20] were 13.8 µM (inactive) and 28.6 µM (inactive), respectively.
In the case of `CC(C)/C=N\n1c(N)c(C#N)c(C#N)c1C(C)C`, the GI50 in assay [1] was 13 µM (inactive); in assay [2], 26.1 µM (inactive); in assay [3], 40.2 µM (inactive); in assay [4] it was 4.67 µM (inactive); in [5] it was 0.951 µM (active); in [6], 16.8 µM (inactive). For the same molecule, the GI50 in [7] is 38.5 µM (inactive); in assay [8], 19 µM (inactive); in assay [9], 18.2 µM (inactive); in assay [10], 23.3 µM (inactive); in [11], 20.5 µM (inactive); in assay [12] it was 18.9 µM (inactive). Also, the GI50 in [13] is 28.6 µM (inactive); in [14], 38.1 µM (inactive); in assay [15] it was 15.8 µM (inactive); in assay [16], 19.4 µM (inactive); in assay [17], 35.6 µM (inactive); in assay [18] it was 22.2 µM (inactive). In addition, the GI50 in assay [19] is 20.3 µM (inactive); in [20] it was 27 µM (inactive).
On to `Cn1/c(=N\N=C2\C=C3CCCCC3(C)CC2)sc2ccccc21` (stereo not given), for which the GI50 in assay [1] is > 100 µM (inactive); in [2], > 100 µM (inactive); in [3], > 100 µM (inactive); in assay [4], 47.1 µM (inactive); in assay [5], > 100 µM (inactive); in [6] it was > 100 µM (inactive). Moreover, the GI50 in assay [7], in [8], in assay [9], in [10], in assay [11] and in [12] was > 100 µM (inactive) throughout. The GI50 in assay [13] is > 100 µM (inactive); in assay [14] it was > 100 µM (inactive); in assay [15], > 100 µM (inactive); in [16], 71.8 µM (inactive); in assay [17], > 100 µM (inactive); in assay [18], > 100 µM (inactive). Also, the GI50 in assay [19] and in [20] was > 100 µM (inactive) throughout.
With `COc1ccc2c(c1)CC[C@@H]1[C@@H]2CC[C@]2(C)/C(=N/OCCN3CCCC3)CC[C@@H]12`, the GI50 was 2.49 µM (inactive) in [1]; 1.21 µM (inactive) in assay [2]; 1.75 µM (inactive) in assay [3]; 3 µM (inactive) in assay [4]; 1.97 µM (inactive) in assay [5]; 2.35 µM (inactive) in [6]. Moreover, the GI50 in assay [7] was 3.03 µM (inactive); in [8], 1.57 µM (inactive); in [9], 12 µM (inactive); in [10], 8.61 µM (inactive); in [11] it was 1.75 µM (inactive); in assay [12], 1.9 µM (inactive). The GI50 in assay [13] is 6.52 µM (inactive); in assay [14], 1.95 µM (inactive); in assay [15] it was 2.81 µM (inactive); in [16], 3.83 µM (inactive); in [17], 3.94 µM (inactive); in assay [18], 1.27 µM (inactive). Besides, the figures for the GI50 in assay [19] and in assay [20] were 4.45 µM (inactive) and 2.42 µM (inactive), respectively.
As to `N#Cc1ccc(Oc2nc3ccc(C(F)(F)F)cc3nc2-c2ccccc2)cc1`, the GI50 was 12.6 µM (inactive) in [1]; 20.1 µM (inactive) in [2]; 17.1 µM (inactive) in assay [3]; 14.1 µM (inactive) in [4]; 2.77 µM (inactive) in assay [5]; 24.8 µM (inactive) in assay [6]. Moreover, the GI50 in [7] is 20.4 µM (inactive); in assay [8], 27.2 µM (inactive); in assay [9] it was 16.2 µM (inactive); in assay [10] it was 16.9 µM (inactive); in assay [11] it was 22.6 µM (inactive); in assay [12] it was 29.8 µM (inactive). Besides, the GI50 in [13] was 20.6 µM (inactive); in [14] it was 21.3 µM (inactive); in assay [15], 17.2 µM (inactive); in assay [16] it was 14.5 µM (inactive); in [17] it was 17.8 µM (inactive); in assay [18], 16.1 µM (inactive). The GI50 in assay [19] was 15.1 µM (inactive); in assay [20] it was 20.5 µM (inactive).

For the origin of these results see ChEMBL document CHEMBL1201862, “PubChem BioAssay data set” (2004).
